Experimental data reported in patent US20030236218A1, “Aryl phosphate derivatives of d4T with selective activity against adenovirus and HIV” (priority 2002, published 2003).
≈ marks a conversion by molar mass, not a printed value. Where two headings read alike, the source gives them in different places.

Experiments:
[1] = tested on: respiratory syncytial virus (RSV), strain Long; test: RSV plaque formation assay in HEP-2 cells; assay type: cell-based; conditions: human respiratory syncytial virus
Excerpt: (§1) Virus stocks. The HIV-1 strain used in this study was HTLV-IIIB (Uckun et al., 1998 Antimicro. Agents and Chemother., 42:383-388). The non-HIV viruses included in the present study were the gancyclovir-sensitive cytomegalovirus (CMV) strain AD169 (ATCC VR-538); acyclovir-sensitive herpes simplex virus (HSV) Type I strain HF (ATCC VR-260); acyclovir-sensitive HSV Type II strain G (ATCC VR-734); adenovirus strain Type 5, strain adenoid 75 (ATCC VR-5); enterovirus strain, ECHO 30, strain Bastianni (ATCC VR-322); and respiratory syncytial virus (RSV), strain Long (ATCC VR-26).
(§2) Plaque formation assays. Plaque assays were used to examine the activity of the compounds against non-HIV viruses. The skin fibroblast cell line SF (ATCC CRL-2097) was used as a target for AD169, Adenovirus Type 5. […] cell line (ATCC CCL-81) was used as a target for HSV HF and G. The HEP-2 cell line (ATCC CCL-23) was used as a target for the RSV strain Long. These cell lines were cultured at 1×10^5 cells/well in 24-well (all but ECHO 30-infected SF) or 6-well (ECHO 30-infected SF) tissue culture plates with 0.9% methylcellulose or 0.4% SeaPlaque agarose semisolid support. […] Percent inhibition of plaque formation was calculated by comparing the plaque numbers from the test substance-treated infected cells with the plaque numbers from untreated infected cells (i.e., virus controls). The IC50 values were determined using the Statview statistics program (SAS Institute, Inc., Cary, N.C.).
(§3) Statistical analysis. […] An IC50 value was calculated from each set of triplicate wells using nonlinear regression modeling of the exponential form of the linearized equation (Statview, SAS Institute, Inc., Cary, N.C.). […]
(§4) The skin fibroblast cell line SF (ATCC CRL-2097) was used as a target for AD169, Adenovirus Type 5, and ECHO 30; the VERO cell line (ATCC CCL-81) was used as a target for HF and G; and the HEP-2 cell line (ATCC CCL-23) was used as target for the RSV strain Long. Results are expressed as the average IC50 values in μM. […]

[2] = Pharmacokinetic studies in mice, oral administration; assay type: in vivo, Balb/c mice
Protocol: Female Balb/c mice (6-8 weeks old) from Taconic (Germantown, N.Y.) were housed in a controlled environment (12-hours of light/12-hours of dark, 22±1° C., 60±10% relative humidity), which is fully accredited by the USDA. All rodents were housed in microisolator cages (Lab Products, Inc., NJ) containing autoclaved bedding. The mice were allowed free access to autoclaved pellet food and tap water throughout the study. All animal care procedures conformed to the Guide for the Care and Use of Laboratory Animals (National Research Council, National Academy Press, Washington D.C. 1996).
Sampling time points were 0, 2, 5, 10, 15, 30, 45, 60, 120, 240 and 360 minutes after the gavage.
All collected blood samples were heparinized and centrifuged at 7000×g for 5 minutes to separate the plasma fraction from the whole blood. The plasma samples were then processed immediately using the extraction procedure described above.
Pharmacokinetic modeling and parameter calculations were carried out using the WinNonlin Professional Version 3.0 (Pharsight, Inc., Mountain, Calif.) pharmacokinetics software (Chen et al., Pharm. Res., 16, 1003 (1999); Chen et al., Pharm. Res., 16, 117 (1999); Chen et al., J. Clin. Pharmacol., 39, 1248 (1999); Uckun et al., Clin. Cancer Res., 5, 2954 (1999); and Uckun et al., J. Pharmacol. Exp. Ther., 291, 1301 (1999)). An appropriate model was chosen on the basis of the lowest sum of weighted squared residuals, the lowest Schwartz Criterion (SC), the lowest Akaike's Information Criterion (AIC) value, the lowest standard errors of the fitted parameters, and the dispersion of the residuals. The elimination half-life was estimated by linear regression analysis of the terminal phase of the plasma concentration-time profile. The area under the concentration-time curve (AUC) was calculated according to the linear trapezoidal rule between the first sampling time (0 hours) and the last sampling time plus C/k, where C is the concentration of the last sampling and k is the elimination rate constant. The systemic clearance (CL) was determined by dividing the dose by the AUC. The metabolic clearance of the parent drug, the formation clearance of the metabolite, the clearance elimination of the metabolite, and the distribution clearance of the metabolite were estimated by simultaneous fitting of the concentration of parent drug and metabolites as a function of time curve to pharmacokinetic models (see FIGS. 7A & 8A) specified as a system of differential equations (Gabrielsson & Weiner, Phamacokinetic/Phamacodynamic Data Analysis: Concepts and Applications, Swedish Pharmaceutical Press (1997)).

[3] = tested on: adenovirus strain Type 5, strain adenoid 75; test: Adenovirus plaque formation assay in skin fibroblast cell line SF; assay type: cell-based, human adenovirus
Excerpt: as §1
Plaque formation assays. Plaque assays were used to examine the activity of the compounds against non-HIV viruses. The skin fibroblast cell line SF (ATCC CRL-2097) was used as a target for AD169, Adenovirus Type 5. […] cell line (ATCC CCL-81) was used as a target for HSV HF and G. The HEP-2 cell line (ATCC CCL-23) was used as a target for the RSV strain Long. These cell lines were cultured at 1×10^5 cells/well in 24-well (all but ECHO 30-infected SF) or 6-well (ECHO 30-infected SF) tissue culture plates with 0.9% methylcellulose or 0.4% SeaPlaque agarose semisolid support. Minimum Essential Medium (MEM) with Earle's salts (Gibco), L-glutamine, non-essential amino acids, 2% heat-inactivated fetal bovine serum, 1% penicillin/streptomycin, and 0.05% gentamicin served as the culture medium. The incubation times were 3 days for HF, G, ECHO 30, and Long; and 7 days for AD169 and Adenovirus Type 5. Plaque counting was performed with a 20X dissecting microscope for AD169, Type 5, ECHO 30, and RSV Long, and with a light box for HF and G. The fixative agent was crystal violet for all viruses, except for the CMV strain AD169 for which methylene blue was used. Percent inhibition of plaque formation was calculated by comparing the plaque numbers from the test substance-treated infected cells with the plaque numbers from untreated infected cells (i.e., virus controls). The IC50 values were determined using the Statview statistics program (SAS Institute, Inc., Cary, N.C.).
Statistical analysis. Each drug was tested at 6-7 different concentrations ranging from 0.0001 μM to 100 μM. Each assay was set up in triplicate wells and repeated 1-3 times. An IC50 value was calculated from each set of triplicate wells using nonlinear regression modeling of the exponential form of the linearized equation (Statview, SAS Institute, Inc., Cary, N.C.). […] The IC50 values obtained were correlated to the log transformed hydrolysis rate constants by fitting a linear model (JMP Software, SAS Institute Inc., Cary, N.C.). P-values less than 0.05 were deemed significant.
The skin fibroblast cell line SF (ATCC CRL-2097) was used as a target for AD169, Adenovirus Type 5, and ECHO 30; the VERO cell line (ATCC CCL-81) was used as a target for HF and G; and the HEP-2 cell line (ATCC CCL-23) was used as target for the RSV strain Long. Results are expressed as the average IC50 values in μM. Stavudine (STV) was included as a control.

[4] = Octanol/water partition coefficient, shake flask method; assay type: physicochemical; conditions: 4 hours at room temperature, read-out: Oct/Water (log P)
Protocol: HPLC purification was achieved using a reverse-phase Lichrospher column (250×4 mm, Hewlett-Packard, RP-18, Cat. #79925) and an isocratic flow (1 ml/minute) consisting of water (70%) and acetonitrile (30%). Melting points were determined using a Melt John's apparatus and are uncorrected. Column chromatography was performed using silica gel obtained from Baker Company. The octanol/water partition coefficient was determined by the shake flask method. The phosphoramidate analogs were added to 2 ml of water and 2 ml of octanol in a glass vial. The mixture was shaken for 4 hours at room temperature. The two phases were carefully separated and filtered through a Millipore filter and analyzed by HPLC. The partition coefficient was calculated using the ratio of the area under the curve for octanol and water, respectively.

HIV-1 strain HTLV-IIIB = test: In vitro anti-HIV-1 activity, p24 antigen assay in PBMNC; assay type: cell-based; conditions: Human immunodeficiency virus 1, HIV-1, HTLV-IIIB, day 7
Excerpt: as §1
In vitro assays of anti-HIV-1 activity. Normal human peripheral blood mononuclear cells (PBMNC) from HIV-negative donors were cultured 72 hours in RPMI 1640 supplemented with 20% (v/v) heat-inactivated fetal bovine serum (FBS), 3% interleukin-2, 2 mM L-glutamine, 25 mM HEPES, 2 g/L NaHCO3, 50 Tg/mL gentamicin, and 4 Tg/mL phytohemagglutinin prior to exposure to HIV-1 at a multiplicity of infection (MOI) of 0.1 during a 1 hour adsorption period at 37° C. in a humidified 5% CO2 atmosphere. Subsequently, cells were cultured in 96-well microtiter plates (100 TL, 2×10^6 cells/mL) in the presence of various concentrations of compounds 113 or 609. Aliquots of culture supernatants were removed from the wells on the seventh day after infection for p24 antigen assays, as previously described. […] Percent viral inhibition was calculated by comparing the p24 values from untreated infected cells (i.e., virus controls).
Statistical analysis. […] An IC50 value was calculated from each set of triplicate wells using nonlinear regression modeling of the exponential form of the linearized equation (Statview, SAS Institute, Inc., Cary, N.C.). Hydrolysis rates were determined by fitting single exponential decay equations to the disappearance of the compound in alkali conditions (all R^2 values greater than 0.85). […]

[5] = tested on: herpes simplex virus (HSV) Type I strain HF; test: HSV-1 plaque formation assay in VERO cells; assay type: cell-based; conditions: Human alphaherpesvirus 1, HSV-1, Strain HF
Excerpt: as §1, §2, §3, §4

Solubility = assay type: physicochemical; conditions: read-out: Solubility
[6] = tested on: enterovirus strain, ECHO 30, strain Bastianni; test: Enterovirus plaque formation assay in SF cells; assay type: cell-based
Excerpt: as §1, §2, §3, §4

Row | Structure (SMILES) | IC50 ([1]; HEp-2) [µM] | plasma concentration of the parent ([2]; after oral 100 mg/kg compound 113, below the detection limit) [nM] | IC50 ([3]; Adenovirus Type 5, 7 days, ± s.e., read-out: IC50, ADV-induced plaque formation) [µM] | IC50 ([3]; Skin fibroblast, […], read-out: IC50, ADV-induced plaque formation, Adenovirus Type 5, 7 days, ± s.e.) [µM] | logP at 4 h [4] | IC50 (HIV-1 strain HTLV-IIIB) [µM] | IC50 [5] [µM] | Solubility (Solubility) [mg/mL] | IC50 [6] [µM] | IC50 ([1]; RSV, Strain Long, HEP-2 cells, plaque assay, read-out: IC50) [µM] | half-life ([2]; mouse, in vivo, po, mice, orally administered d4T) [min] | Tmax ([2]; mouse, in vivo, po, mice, orally administered d4T, read-out: tmax (converted)) [min] | bioavailability ([2]; orally administered d4T) [%] | IC50 ([3]; Skin fibroblast, […], Adenovirus Type 5, 7 days, ± s.e., read-out: IC50, ADV-induced plaque formation) [µM] | logP at 4 h ([4]; octanol/water) | IC50 ([6]; ECHO 30, SF cells, plaque assay, read-out: IC50) [µM]
1 | COC(=O)C(C)NP(=O)(OC[C@@H]1C=C[C@H](n2cc(C)c(=O)[nH]c2=O)O1)Oc1ccc(Br)cc1 (stereo partly shown) [Compound 113, 5′-[4-Bromophenyl methoxylaninylphosphate]-2′, 3′-didehydro-3′-deoxy thymidine] | > 100 | < 500 | 0.0223 ± 0.009 | 0.022 ± 0.009 | 1.21 | 0.001 | > 100 | 3 (≈ 5.51 mM) | > 100 |  |  |  |  |  |  | 
2 | Cc1cn([C@H]2C=C[C@@H](CO)O2)c(=O)[nH]c1=O [d4T, 2′, 3′-Didehydro-3′-deoxy thymidine, reference compound] |  |  |  |  |  | 0.023 ± 0.008 | > 100 | 83 (≈ 370 mM) |  | > 100 | 18 | 5 | 98 | 12.3 ± 0.3 | -0.59 | > 100
